“And” between values parts separate entries of the source, which are not always exact repeats. Identical values can stand only once.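 Protocol summary: plate cells (96-well), add compound at 5 concentrations, incubate 48 h, interpolate endpoints linearly. At the GI50, growth is halved. The concentration for full growth arrest is given as TGI.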
What was measured:
Assay in all cases: NCI tumour cell line growth inhibition, 48 h
NCI-H226 lung = system: NCI-H226 lung
HOP-62 NSCLC = system: HOP-62 NSCLC
U251 CNS = system: U251 CNS
OVCAR-4 ovarian = system: OVCAR-4 ovarian
SW-620 colon = system: SW-620 colon
OVCAR-5 ovarian = system: OVCAR-5 ovarian
K-562 leukemia = system: K-562 leukemia
HL-60(TB) leukemia = system: HL-60(TB) leukemia
SF-268 CNS = system: SF-268 CNS
MDA-MB-435 = system: MDA-MB-435
UO-31 renal = system: UO-31 renal
SK-MEL-28 melanoma = system: SK-MEL-28 melanoma
PC-3 prostate = system: PC-3 prostate
UACC-62 melanoma = system: UACC-62 melanoma
LOX IMVI melanoma = system: LOX IMVI melanoma
MOLT-4 leukemia = system: MOLT-4 leukemia
A549 NSCLC = system: A549 NSCLC
HCC-2998 colon = system: HCC-2998 colon
MCF7 breast = system: MCF7 breast
M14 melanoma = system: M14 melanoma
SF-539 CNS = system: SF-539 CNS
HT29 colon = system: HT29 colon
MDA-N = system: MDA-N
CAKI-1 renal = system: CAKI-1 renal
MDA-MB-231 breast = system: MDA-MB-231 breast
NCI-H460 lung = system: NCI-H460 lung
HOP-92 NSCLC = system: HOP-92 NSCLC
MALME-3M melanoma = system: MALME-3M melanoma
OVCAR-8 ovarian = system: OVCAR-8 ovarian
HS 578T breast = system: HS 578T breast
SN12C renal = system: SN12C renal
HCT-15 colon = system: HCT-15 colon
A498 renal = system: A498 renal
SNB-75 CNS = system: SNB-75 CNS
SK-OV-3 ovarian = system: SK-OV-3 ovarian
SK-MEL-5 melanoma = system: SK-MEL-5 melanoma
OVCAR-3 ovarian = system: OVCAR-3 ovarian
RPMI-8226 leukemia = system: RPMI-8226 leukemia
TK-10 renal = system: TK-10 renal
SR leukemia = system: SR leukemia
CCRF-CEM leukemia = system: CCRF-CEM leukemia
SF-295 CNS = system: SF-295 CNS
T-47D breast = system: T-47D breast
NCI/ADR-RES ovarian = system: NCI/ADR-RES ovarian
NCI-H23 lung = system: NCI-H23 lung
COLO 205 colon = system: COLO 205 colon
IGROV1 ovarian = system: IGROV1 ovarian
DU-145 prostate = system: DU-145 prostate
BT-549 breast = system: BT-549 breast
RXF 393 renal = system: RXF 393 renal
EKVX NSCLC = system: EKVX NSCLC
786-0 renal = system: 786-0 renal
NCI-H522 lung = system: NCI-H522 lung
SNB-19 CNS = system: SNB-19 CNS
KM12 colon = system: KM12 colon
UACC-257 melanoma = system: UACC-257 melanoma
HCT-116 colon = system: HCT-116 colon
ACHN renal = system: ACHN renal
SK-MEL-2 melanoma = system: SK-MEL-2 melanoma

## CCc1c2c(nc3cccc(N)c13)-c1cc3c(c(=O)n1C2)COC(=O)[C@]3(O)CC
NCI-H226 lung
  GI50: 2.08 nM
  TGI: 157 nM
HOP-62 NSCLC
  GI50: 1.43 nM
  TGI: 4290 nM
U251 CNS
  GI50: < 1 nM
  TGI: 34.8 nM and 30 nM
OVCAR-4 ovarian
  GI50: 104 nM and 23.8 nM
  TGI: > 100000 nM
SW-620 colon
  GI50: 11 nM
  TGI: > 100000 nM
OVCAR-5 ovarian
  TGI: 115 nM
K-562 leukemia
  GI50: 2.44 nM
  TGI: > 100000 nM
HL-60(TB) leukemia
  GI50: 1.27 nM
  TGI: 18.2 nM
SF-268 CNS
  GI50: 2.33 nM
  TGI: 78000 nM
MDA-MB-435
  GI50: 34.9 nM
  TGI: 1540 nM
UO-31 renal
  GI50: 51.6 nM
  TGI: 397 nM
SK-MEL-28 melanoma
  GI50: 113 nM and 34 nM
  TGI: > 100000 nM
PC-3 prostate
  GI50: 349 nM
  TGI: > 100000 nM
UACC-62 melanoma
  GI50: < 1 nM
LOX IMVI melanoma
  GI50: 4.61 nM
  TGI: 182 nM
MOLT-4 leukemia
  GI50: < 1 nM
  TGI: 150 nM
A549 NSCLC
  GI50: 8.17 nM
  TGI: 504 nM
HCC-2998 colon
  GI50: 34.9 nM and 20 nM
  TGI: 1390 nM and 11400 nM
MCF7 breast
  GI50: < 1 nM
  TGI: 10.1 nM
M14 melanoma
  GI50: 2.02 nM
  TGI: 2970 nM
SF-539 CNS
  GI50: < 1 nM
  TGI: 4.91 nM
HT29 colon
  TGI: 655 nM
MDA-N
  GI50: 91.5 nM and 704 nM
  TGI: > 100000 nM
CAKI-1 renal
  TGI: 34.9 nM
MDA-MB-231 breast
  GI50: 53 nM
  TGI: > 100000 nM
NCI-H460 lung
  GI50: 2 nM
HOP-92 NSCLC
  GI50: 3.31 nM
MALME-3M melanoma
  GI50: 44.8 nM and 11 nM
  TGI: 2300 nM and 3110 nM
OVCAR-8 ovarian
  GI50: 2.24 nM
  TGI: > 100000 nM
HS 578T breast
  TGI: > 100000 nM
SN12C renal
  GI50: < 1 nM
  TGI: 38700 nM
HCT-15 colon
  TGI: > 100000 nM
A498 renal
  GI50: 56.9 nM
  TGI: 487 nM and 60.9 nM
SNB-75 CNS
  GI50: 15.8 nM
  TGI: 16900 nM
SK-OV-3 ovarian
  GI50: 7.19 nM
  TGI: 4130 nM and 13000 nM
SK-MEL-5 melanoma
  GI50: 3.29 nM
OVCAR-3 ovarian
  GI50: 237 nM
RPMI-8226 leukemia
  GI50: 93.2 nM
  TGI: 560 nM
TK-10 renal
  TGI: 748 nM
SR leukemia
  GI50: < 1 nM
CCRF-CEM leukemia
  GI50: < 1 nM
SF-295 CNS
  GI50: 4.41 nM
T-47D breast
  TGI: > 100000 nM
NCI/ADR-RES ovarian
  GI50: 16.4 nM
  TGI: > 100000 nM
NCI-H23 lung
  GI50: 3.27 nM
COLO 205 colon
  GI50: 328 nM
IGROV1 ovarian
  GI50: 137 nM and 29.8 nM
  TGI: 20800 nM
DU-145 prostate
  GI50: 1.61 nM
  TGI: > 100000 nM
BT-549 breast
  GI50: 6.56 nM
  TGI: 21.8 nM
RXF 393 renal
  GI50: 63.6 nM
EKVX NSCLC
  GI50: 187 nM
  TGI: > 100000 nM
786-0 renal
  GI50: < 1 nM
  TGI: 1620 nM
NCI-H522 lung
  GI50: 4.59 nM
SNB-19 CNS
  GI50: 1.76 nM
  TGI: 51.2 nM
KM12 colon
  GI50: 159 nM

## O=C(Nc1ccc2c(c1)oc(=O)c1ccccc12)C(Cl)Cl
NCI-H226 lung
  TGI: > 100000 nM
HOP-62 NSCLC
  TGI: > 100000 nM
U251 CNS
  TGI: > 100000 nM
SW-620 colon
  TGI: > 100000 nM
OVCAR-5 ovarian
  TGI: > 100000 nM
K-562 leukemia
  TGI: > 100000 nM
HL-60(TB) leukemia
  TGI: 25500 nM
SF-268 CNS
  TGI: > 100000 nM
MDA-MB-435
  TGI: > 100000 nM
UO-31 renal
  TGI: > 100000 nM
SK-MEL-28 melanoma
  TGI: > 100000 nM
PC-3 prostate
  TGI: > 100000 nM
UACC-62 melanoma
  TGI: > 100000 nM
LOX IMVI melanoma
  TGI: > 100000 nM
MOLT-4 leukemia
  TGI: > 100000 nM
UACC-257 melanoma
  TGI: > 100000 nM
A549 NSCLC
  TGI: > 100000 nM
HCC-2998 colon
  TGI: > 100000 nM
MCF7 breast
  TGI: > 100000 nM
M14 melanoma
  TGI: > 100000 nM
SF-539 CNS
  TGI: > 100000 nM
HT29 colon
  TGI: 97800 nM
MDA-N
  TGI: > 100000 nM
CAKI-1 renal
  TGI: > 100000 nM
MDA-MB-231 breast
  TGI: > 100000 nM
NCI-H460 lung
  TGI: 92500 nM
HOP-92 NSCLC
  TGI: > 100000 nM
MALME-3M melanoma
  TGI: > 100000 nM
OVCAR-8 ovarian
  TGI: > 100000 nM
HS 578T breast
  TGI: > 100000 nM
SN12C renal
  TGI: > 100000 nM
HCT-116 colon
  TGI: > 100000 nM
HCT-15 colon
  TGI: > 100000 nM
A498 renal
  TGI: > 100000 nM
SNB-75 CNS
  TGI: > 100000 nM
SK-MEL-5 melanoma
  TGI: > 100000 nM
OVCAR-3 ovarian
  TGI: 73800 nM
ACHN renal
  TGI: > 100000 nM
RPMI-8226 leukemia
  TGI: 32500 nM
SR leukemia
  TGI: > 100000 nM
CCRF-CEM leukemia
  TGI: > 100000 nM
SF-295 CNS
  TGI: > 100000 nM
T-47D breast
  TGI: > 100000 nM
NCI/ADR-RES ovarian
  TGI: > 100000 nM
NCI-H23 lung
  TGI: > 100000 nM
COLO 205 colon
  TGI: > 100000 nM
IGROV1 ovarian
  TGI: > 100000 nM
DU-145 prostate
  TGI: > 100000 nM
BT-549 breast
  TGI: > 100000 nM
RXF 393 renal
  TGI: > 100000 nM
EKVX NSCLC
  TGI: > 100000 nM
786-0 renal
  TGI: > 100000 nM
NCI-H522 lung
  TGI: > 100000 nM
SNB-19 CNS
  TGI: > 100000 nM
KM12 colon
  TGI: > 100000 nM
SK-MEL-2 melanoma
  TGI: > 100000 nM

Source: PubChem BioAssay (NCI)
